According to patent US12264156B2, “Compounds and pharmaceutical compositions thereof for the treatment of diseases” (GALAPAGOS NV, priority 2018, dated 2025):

Experiments:
Format in all cases: biochemical
Details in all cases: ADP-Glo SIK kinase assay
SIK1 = target: T1, SIK1 (Homo sapiens, UniProt P57059); assay: ADP-Glo kinase assay, SIK1
T1 construct: purchased Carna Biosciences 02-131
How it was run: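 Enzyme–substrate mix was started with ATP and incubated 120 min at RT. ADP formed was quantified by ADP-Glo: 40 min ATP depletion, then 30 min detection reagent converting ADP to ATP for luciferase luminescence, which rises with kinase activity. Controls: 1% DMSO and 10 μM staurosporine (final).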

SIK2 = target: T2, SIK2 (Homo sapiens, UniProt Q9H0K1); assay: ADP-Glo kinase assay, SIK2
T2 construct: purchased ThermoFisher Scientific PV4792
T2 sequence (Q9H0K1 whole entry): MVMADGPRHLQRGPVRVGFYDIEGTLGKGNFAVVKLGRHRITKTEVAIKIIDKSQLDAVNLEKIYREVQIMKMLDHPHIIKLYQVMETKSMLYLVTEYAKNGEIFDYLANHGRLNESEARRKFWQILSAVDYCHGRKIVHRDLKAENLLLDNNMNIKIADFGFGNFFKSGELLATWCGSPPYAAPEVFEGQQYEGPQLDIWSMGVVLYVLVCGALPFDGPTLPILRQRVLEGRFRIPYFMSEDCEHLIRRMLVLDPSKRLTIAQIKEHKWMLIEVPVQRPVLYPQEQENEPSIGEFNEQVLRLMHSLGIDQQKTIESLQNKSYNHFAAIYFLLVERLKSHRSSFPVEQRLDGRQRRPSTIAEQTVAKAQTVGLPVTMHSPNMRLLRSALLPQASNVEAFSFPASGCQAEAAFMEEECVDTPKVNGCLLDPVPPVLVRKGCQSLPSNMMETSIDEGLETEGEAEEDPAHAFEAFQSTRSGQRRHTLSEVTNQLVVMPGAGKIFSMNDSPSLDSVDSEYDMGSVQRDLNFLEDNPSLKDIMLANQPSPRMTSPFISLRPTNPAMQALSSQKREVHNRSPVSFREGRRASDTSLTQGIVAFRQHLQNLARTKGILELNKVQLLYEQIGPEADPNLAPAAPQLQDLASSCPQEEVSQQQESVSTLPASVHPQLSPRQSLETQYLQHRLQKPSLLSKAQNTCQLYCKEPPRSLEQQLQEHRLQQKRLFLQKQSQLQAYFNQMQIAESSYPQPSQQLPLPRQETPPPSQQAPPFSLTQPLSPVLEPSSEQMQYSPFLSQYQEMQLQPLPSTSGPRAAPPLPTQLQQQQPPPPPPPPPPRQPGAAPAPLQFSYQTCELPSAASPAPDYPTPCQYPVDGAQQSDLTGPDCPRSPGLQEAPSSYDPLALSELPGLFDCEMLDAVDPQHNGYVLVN
How it was run: (§1)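 Wells with 1% DMSO or 10 μM staurosporine (final) define the control window. The kinase reaction with substrate and ATP runs 120 min at RT, followed by ADP-Glo detection: ATP depletion (40 min) and ADP-derived luminescence (30 min).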

SIK3 = target: T3, SIK3 (Homo sapiens, UniProt Q9Y2K2); assay: ADP-Glo kinase assay, SIK3
T3 construct: purchased SignalChem S12-11G-100
T3 sequence (Q9Y2K2 whole entry): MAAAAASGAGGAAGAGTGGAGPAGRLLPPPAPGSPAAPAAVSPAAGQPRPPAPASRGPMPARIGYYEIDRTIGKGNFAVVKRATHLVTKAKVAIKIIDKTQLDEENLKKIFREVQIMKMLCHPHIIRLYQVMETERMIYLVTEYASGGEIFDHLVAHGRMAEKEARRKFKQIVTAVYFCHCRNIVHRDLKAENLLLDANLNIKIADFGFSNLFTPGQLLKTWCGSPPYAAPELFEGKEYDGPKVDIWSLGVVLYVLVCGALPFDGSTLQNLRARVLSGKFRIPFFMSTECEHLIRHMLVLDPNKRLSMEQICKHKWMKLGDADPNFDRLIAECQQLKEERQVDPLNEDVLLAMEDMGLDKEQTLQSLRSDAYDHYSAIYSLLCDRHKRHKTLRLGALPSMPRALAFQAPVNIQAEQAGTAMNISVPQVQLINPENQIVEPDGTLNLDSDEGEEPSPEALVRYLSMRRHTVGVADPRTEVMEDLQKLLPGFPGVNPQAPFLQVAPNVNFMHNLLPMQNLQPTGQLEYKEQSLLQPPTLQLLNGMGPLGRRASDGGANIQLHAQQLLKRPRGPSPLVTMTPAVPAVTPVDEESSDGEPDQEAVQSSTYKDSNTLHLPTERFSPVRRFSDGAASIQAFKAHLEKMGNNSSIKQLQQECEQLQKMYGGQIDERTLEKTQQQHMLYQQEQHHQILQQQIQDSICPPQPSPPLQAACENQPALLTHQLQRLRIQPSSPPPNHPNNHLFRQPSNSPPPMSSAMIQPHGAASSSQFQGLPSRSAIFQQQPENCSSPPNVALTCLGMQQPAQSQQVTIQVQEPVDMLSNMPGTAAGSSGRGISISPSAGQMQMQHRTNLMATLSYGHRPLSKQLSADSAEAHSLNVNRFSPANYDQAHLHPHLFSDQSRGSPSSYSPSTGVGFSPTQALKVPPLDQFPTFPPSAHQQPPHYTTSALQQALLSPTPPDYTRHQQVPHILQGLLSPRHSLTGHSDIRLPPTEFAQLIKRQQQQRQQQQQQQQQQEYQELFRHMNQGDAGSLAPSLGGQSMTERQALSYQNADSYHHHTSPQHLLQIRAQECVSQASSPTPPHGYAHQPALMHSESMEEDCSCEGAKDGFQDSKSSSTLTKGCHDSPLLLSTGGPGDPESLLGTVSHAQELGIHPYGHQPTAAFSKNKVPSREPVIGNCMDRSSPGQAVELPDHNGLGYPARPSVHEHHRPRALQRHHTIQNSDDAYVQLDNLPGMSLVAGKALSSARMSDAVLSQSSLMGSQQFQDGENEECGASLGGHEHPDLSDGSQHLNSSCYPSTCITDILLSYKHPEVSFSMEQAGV
How it was run: as §1

T1 sequence (P57059 whole entry): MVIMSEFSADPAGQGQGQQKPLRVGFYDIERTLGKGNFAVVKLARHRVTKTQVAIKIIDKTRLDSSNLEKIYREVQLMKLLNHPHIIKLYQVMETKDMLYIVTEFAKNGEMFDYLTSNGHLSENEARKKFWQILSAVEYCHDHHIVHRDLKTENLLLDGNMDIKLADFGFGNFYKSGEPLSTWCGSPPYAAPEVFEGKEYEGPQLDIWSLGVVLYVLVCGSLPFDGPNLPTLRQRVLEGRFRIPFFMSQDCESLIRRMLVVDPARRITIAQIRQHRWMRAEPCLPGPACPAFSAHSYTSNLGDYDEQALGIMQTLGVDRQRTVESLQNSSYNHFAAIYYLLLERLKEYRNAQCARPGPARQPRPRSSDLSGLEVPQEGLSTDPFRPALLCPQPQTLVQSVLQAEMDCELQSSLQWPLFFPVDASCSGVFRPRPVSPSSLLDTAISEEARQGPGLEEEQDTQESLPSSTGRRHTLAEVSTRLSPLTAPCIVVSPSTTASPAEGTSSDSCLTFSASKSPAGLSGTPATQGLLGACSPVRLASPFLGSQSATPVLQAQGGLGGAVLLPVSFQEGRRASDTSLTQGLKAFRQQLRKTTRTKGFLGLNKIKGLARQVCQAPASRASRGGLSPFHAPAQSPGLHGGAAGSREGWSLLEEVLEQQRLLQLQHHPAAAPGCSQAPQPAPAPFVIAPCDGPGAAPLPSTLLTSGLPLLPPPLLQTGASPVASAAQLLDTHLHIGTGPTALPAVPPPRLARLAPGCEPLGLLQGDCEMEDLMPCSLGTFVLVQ

| SMILES | IC50 (SIK1) [nM] | IC50 (SIK2) [nM] | IC50 (SIK3) [nM] |
| --- | --- | --- | --- |
| COc1cc(-c2cnc3cc(OCC4CCCCN4C(C)=O)ccn23)cc(OC(F)F)c1C(=O)NC1CC1 (stereo not drawn) [Cpd 141, 4-[7-[(1-acetyl-2-piperidyl)methoxy]imidazo [1,2-a]pyridin-3-yl]-N-cyclopropyl-2-(difluoromethoxy)-6-methoxy-benzamide] | 0.01 to 10 | 0.01 to 10 | 0.01 to 10 |
| COc1cc(-c2cnc3cc(OCCC4CCCCN4C)ccn23)cc(OC(F)F)c1C(=O)NC1CC1 (stereo not drawn) [compound 24, N-cyclopropyl-2-(difluoromethoxy)-6-methoxy-4-[7-[2-(1-methyl-2-piperidyl)ethoxy]imidazo [1,2-a]pyridin-3-yl]benzamide] | 0.01 to 10 | 0.01 to 10 | 0.01 to 10 |
| COc1cc(-c2cnc3cc(OCCCOS(C)(=O)=O)ccn23)cc(OC(F)F)c1C(=O)NC1CC1 [Cpd 333, 3-[3-[4-(cyclopropylcarbamoyl)-3-(difluoromethoxy)-5-methoxy-phenyl]imidazo[1,2-a]pyridin-7-yl]oxypropyl methanesulfonate] | 10 to 100 | 0.01 to 10 | 0.01 to 10 |
| COc1cc(-c2cnc3cc(OCC(C)(C)N(C)C)ccn23)cc(OC(F)F)c1C(=O)NC1CC1 [compound 106, N-cyclopropyl-2-(difluoromethoxy)-4-[7-[2-(dimethylamino)-2-methyl-propoxy]imidazo[1,2-a]pyridin-3-yl]-6-methoxy-benzamide] | > 500 | 10 to 100 | 10 to 100 |
| COc1cc(-c2cnc3cc(OCC4(O)CCN(C(C)C)C4)ccn23)cc(OC(F)F)c1C(=O)NC1CC1 (stereo not drawn) [Cpd 372, N-cyclopropyl-2-(difluoromethoxy)-4-[7-[(3-hydroxy-1-isopropyl-pyrrolidin-3-yl)methoxy]imidazo[1,2-a]pyridin-3-yl]-6-methoxy-benzamide] | 10 to 100 | 0.01 to 10 | 0.01 to 10 |
| COc1cc(-c2cnc3cc(OCC4CNC(=O)C4)ccn23)cc(OC(F)F)c1C(=O)NC1CC1 (stereo not drawn) [compound 102, N-cyclopropyl-2-(difluoromethoxy)-6-methoxy-4-[7-[(5-oxopyrrolidin-3-yl)methoxy]imidazo[1,2-a]pyridin-3-yl]benzamide] | 10 to 100 | 0.01 to 10 | 0.01 to 10 |
| COc1cc(-c2cnc3cc(OCc4cncn4C)ccn23)cc(OC(F)F)c1C(=O)NC1CC1 [compound 19, N-cyclopropyl-2-(difluoromethoxy)-6-methoxy-4-[7-[(3-methylimidazol-4-yl)methoxy]imidazo[1,2-a]pyridin-3-yl]benzamide] | 10 to 100 | 0.01 to 10 | 0.01 to 10 |
| COc1cc(-c2cnc3cc(OCC4CC(F)(F)C4)ccn23)cc(OC(F)F)c1C(=O)NC1CC1 [compound 52, N-cyclopropyl-4-[7-[(3,3-difluorocyclobutyl)methoxy]imidazo[1,2-a]pyridin-3-yl]-2-(difluoromethoxy)-6-methoxy-benzamide] | 0.01 to 10 | 0.01 to 10 | 0.01 to 10 |
| COc1cc(-c2cnc3cc(OCC4CCOCC4)ccn23)cc(OC(F)F)c1C(=O)NC1CC1 [compound 49, N-cyclopropyl-2-(difluoromethoxy)-6-methoxy-4-[7-(tetrahydropyran-4-ylmethoxy)imidazo[1,2-a]pyridin-3-yl] benzamide] | 0.01 to 10 | 0.01 to 10 | 0.01 to 10 |
| COc1cc(-c2cnc3cc(OCC4(C)COC4)ccn23)cc(OC(F)F)c1C(=O)NC1CC1 [compound 89, N-cyclopropyl-2-(difluoromethoxy)-6-methoxy-4-[7-[(3-methyloxetan-3-yl)methoxy]imidazo[1,2-a]pyridin-3-yl]benzamide] | 10 to 100 | 0.01 to 10 | 0.01 to 10 |
| COc1cc(-c2cnc3cc(OC4CC5(COC5)C4)ccn23)cc(OC(F)F)c1C(=O)NC1CC1 [compound 162, N-cyclopropyl-2-(difluoromethoxy)-6-methoxy-4-[7-(2-oxaspiro[3.3]heptan-6-yloxy)imidazo[1,2-a]pyridin-3-yl]benzamide] | 10 to 100 | 10 to 100 | 0.01 to 10 |
| COc1cc(-c2cnc3cc(OCC4CCCN4C)ccn23)cc(OC(F)F)c1C(=O)NC1CC1 (stereo not drawn) [compound 28, N-cyclopropyl-2-(difluoromethoxy)-6-methoxy-4-[7-[(1-methylpyrrolidin-2-yl)methoxy]imidazo[1,2-a]pyridin-3-yl]benzamide] | 100 to 500 | 0.01 to 10 | 0.01 to 10 |
| COc1cc(-c2cnc3cc(Oc4ccccc4)ccn23)cc(OC(F)F)c1C(=O)NC1CC1 [compound 157, N-cyclopropyl-2-(difluoromethoxy)-6-methoxy-4-(7-phenoxyimidazo[1,2-a]pyridin-3-yl)benzamide] | 100 to 500 | 100 to 500 | 0.01 to 10 |

Further lines, results first:

| IC50 (SIK1) [nM] | IC50 (SIK2) [nM] | IC50 (SIK3) [nM] | SMILES |
| --- | --- | --- | --- |
| 10 to 100 | 0.01 to 10 | 0.01 to 10 | COc1cc(-c2cnc3cc(OCc4cc(C)nn4C)ccn23)cc(OC(F)F)c1C(=O)NC1CC1 [compound 198, N-cyclopropyl-2-(difluoromethoxy)-4-[7-[(2,5-dimethylpyrazol-3-yl)methoxy]imidazo[1,2-a]pyridin-3-yl]-6-methoxy-benzamide] |
| 10 to 100 | 0.01 to 10 | 0.01 to 10 | COc1cc(-c2cnc3cc(OCc4ccn(C)n4)ccn23)cc(OC(F)F)c1C(=O)NC1CC1 [compound 200, N-cyclopropyl-2-(difluoromethoxy)-6-methoxy-4-[7-[(1-methylpyrazol-3-yl)methoxy]imidazo[1,2-a]pyridin-3-yl]benzamide] |
| 0.01 to 10 | 0.01 to 10 | 0.01 to 10 | COc1cc(-c2cnc3cc(OC[C@H]4CCCN(CCC#N)C4)ccn23)cc(OC(F)F)c1C(=O)NC1CC1 [compound 351, 4-[7-[[(3S)-1-(2-cyanoethyl)-3-piperidyl]methoxy]imidazo [1,2-a]pyridin-3-yl]-N-cyclopropyl-2-(difluoromethoxy)-6-methoxy-benzamide] |
| 10 to 100 | 0.01 to 10 | 0.01 to 10 | COc1cc(-c2cnc3cc(OCCN4CC5CCC(C4)O5)ccn23)cc(OC(F)F)c1C(=O)NC1CC1 [compound 195, N-cyclopropyl-2-(difluoromethoxy)-6-methoxy-4-[7-[2-(8-oxa-3-azabicyclo [3.2.1]octan-3-yl)ethoxy]imidazo[1,2-a]pyridin-3-yl]benzamide] |
| 10 to 100 | 0.01 to 10 | 0.01 to 10 | COc1cc(-c2cnc3cc(OC[C@H]4CCN(CCC#N)C4)ccn23)cc(OC(F)F)c1C(=O)NC1CC1 [compound 350, 4-[7-[[(3S)-1-(2-cyanoethyl)pyrrolidin-3-yl]methoxy]imidazo[1,2-a]pyridin-3-yl]-N-cyclopropyl-2-(difluoromethoxy)-6-methoxy-benzamide] |
| 100 to 500 | 0.01 to 10 | 0.01 to 10 | COc1cc(-c2cnc3cc(OCc4nccn4C(C)C)ccn23)cc(OC(F)F)c1C(=O)NC1CC1 [compound 175, N-cyclopropyl-2-(difluoromethoxy)-4-[7-[(1-isopropylimidazol-2-yl)methoxy]imidazo[1,2-a]pyridin-3-yl]-6-methoxy-benzamide] |
| 10 to 100 | 0.01 to 10 | 0.01 to 10 | COc1cc(-c2cnc3cc(OCC4(N)CCOC4)ccn23)cc(OC(F)F)c1C(=O)NC1CC1 (stereo not drawn) [compound 176, 4-[7-[(3-aminotetrahydrofuran-3-yl)methoxy]imidazo[1,2-a]pyridin-3-yl]-N-cyclopropyl-2-(difluoromethoxy)-6-methoxy-benzamide] |
